Experimental data published in US20200009197A1, “COMPOSITIONS AND METHODS FOR THE REPROGRAMMING OF CELLS INTO CARDIOMYOCYTES” (Duke University, priority 2014, published 2020).

How the values were obtained:
[1] = cited from earlier work
[2] = during controlled therapy; cited from earlier work
[3] = test system: neonatal cardiac fibroblasts; assay: qPCR of cardiac and pluripotency gene expression in neonatal cardiac fibroblasts (with or without miR combo transfection); type: cell-based, Mouse (C57BL/6)
Protocol: Mouse (C57BL/6) neonatal cardiac fibroblasts or tail tip fibroblasts were isolated from 2 day old mouse neonates according to known methods e.g., outlined in Jayawardena et al [Jayawardena T, Mirotsou M, Dzau V J. Direct reprogramming of cardiac fibroblasts to cardiomyocytes using microRNAs. Methods in molecular biology. 2014; 1150:263-272]. Cells were cultured in growth media containing DMEM (ATCC) supplemented with 15% v/v FBS and 1% v/v penicillin/streptomycin. Cells were used at passage 1 or passage 2.
Cells were seeded at 5000 cells/cm^2 in growth media. Twenty-four hours later growth media was replaced with chemically defined reprogramming media (Advanced DMEM/F12, 0.2% w/v BSA, 250 μM Ascorbic Acid, 1× Insulin-Transferrin-Selenium, 1× L-Glutamine, 1× Penicillin-Streptomycin). Fresh media was added every two days.
Fibroblasts were seeded into a 24 well-plate at 9,000 cells/well. […]
The GM comprises the following: DMEM (ATCC#30-2002), 15% v/v embryonic stem cell qualified fetal bovine serum, and 1× penicillin/streptomycin. […] Differentiation was assessed by qPCR, immunocytochemistry, and flow cytometry.

SMILES	soluble to, in DMSO ([1]; DMSO) [mM]	soluble to, in ethanol [1] [mM]	also measured
O=C(O)C(Cc1c[nH]c2ccccc12)N1C(=O)c2ccccc2C1=O (stereo not drawn) [RG108, 2-(1,3-Dioxo-1,3-dihydro-2H-isoindol-2-yl)-3-(1H-indol-3-yl)propionic acid]	100	100	
COC(=O)C1=C(C)NC(C)=C([N+](=O)[O-])[C@@H]1c1ccccc1C(F)(F)F [R(+)Bay K 8644, R-(+)-1,4-Dihydro-2,6-dimethyl-5-nitro-4-[2-(trifluoromethyl)phenyl]-3-pyridinecarboxylic acid methyl ester]	100	100	
CCCC(CCC)C(=O)O [Valproic acid, 2-propylpentanoic acid]			serum or plasma concentrations [2]: 20 to 100 mg/L
Cc1cccc(-c2nn(C(=S)Nc3ccccc3)cc2-c2ccnc3ccccc23)n1 [A83-01, 3-(6-Methyl-2-pyridinyl)-N-phenyl-4-(4-quinolinyl)-1H-pyrazole-1-c arbothioamide]	100		
O=C(O)C=C(CCc1ccc(Cl)cc1)c1ccccc1 [PS48, 5-(4-Chloro-phenyl)-3-phenyl-pent-2-enoic acid]			solubility in DMSO ([1]; DMSO): soluble in DMSO
O=C1O[C@H]([C@@H](O)CO)C(O)=C1O [ascorbic acid]			effects of miR-combo upon cardiac gene expression ([3]; added to growth media): augmented; additive effect on cardiac gene expression at gene and protein level ([3]; increasing concentration): increased the additive effect
